Where two headings read alike, the source gives them in different places.
Columns and labels:
Experiment in all cases: Determination of MIC values (BHI broth, 96 well microtiter plate)
Assay type in all cases: cell-based
[1] = tested on: vancomycin-resistant Enterococcus spp. (VRE); details: for MIC: Enterococcus, VRE, read-out: MIC VREF
Summary of the method: (§1)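 Organisms are grown in BHI at 37° C (about 7% CO2) to a 0.5 McFarland standard, then inoculated at 10^5 to 10^6 cells/mL into BHI holding twofold compound dilutions (final 25 down to 0.39 µg/mL, DMSO-diluted). After overnight incubation, MIC is the lowest concentration lacking growth.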

[2] = tested on: methicillin-resistant Staphylococcus aureus (MRSA); details: for MIC: Staphylococcus aureus, read-out: MIC MRSA
Summary of the method: as §1

Streptococcus pneumoniae = details: for MIC: Streptococcus pneumoniae, read-out: MIC S. pneu
Summary of the method: as §1

[3] = VREF, BHI broth, overnight 37° C.
[4] = MRSA, BHI broth, overnight 37° C.
[5] = S. pneu, BHI broth, overnight 37° C.
[6] = 16 h, BHI broth, 37° C., overnight (about 16 hours)
[7] = MRSA, 16 h, BHI broth, 37° C., overnight (about 16 hours)
[8] = BHI broth, 37° C., overnight (about 16 hours)
[9] = 16 h, BHI broth, 37° C., about 16 hours
[10] = MRSA, 16 h, BHI broth, 37° C., about 16 hours
[11] = BHI broth, 37° C., about 16 hours

MIC [1, 3] [µg/mL]	MIC [2, 4] [µg/mL]	MIC (Streptococcus pneumoniae; [5]) [µg/mL]	MIC [1, 9] [µg/mL]	MIC [2, 10] [µg/mL]	MIC (Streptococcus pneumoniae; [11]) [µg/mL]	SMILES	other results
–	–	–	< 25	< 25	< 25	NCCCCCNC(=O)c1cc(-c2c[nH]c3cc(F)ccc23)nc2cc(F)ccc12 [Example 497]	–
–	–	–	> 25	< 7	< 25	COc1ccc(NC(=O)c2cc(-c3c[nH]c4ccc(Br)cc34)nc3ccc(C#CCN4CCCCC4)cc23)cc1 [Example 485]	–
–	–	–	> 25	> 25	> 25	Cc1ccc2ccc(-c3c[nH]c4cc(F)ccc34)nc2c1 [Example 478]	–
> 25	> 25	> 25	–	–	–	O=[N+]([O-])c1cccc2nc(-c3c[nH]c4ccc(Cl)cc34)ccc12 [Example 385]	–
–	–	–	< 25	< 7	< 7	Cc1[nH]c2ccc(Cl)cc2c1-c1cc(Cl)c2ccc(Cl)cc2n1 [Example 473]	–
> 25	> 25	> 25	–	–	–	O=[N+]([O-])c1cccc2nc(-c3c[nH]c4cc(F)ccc34)ccc12 [Example 388]	–
–	–	–	> 25	< 7	< 25	Clc1ccc2nc(-c3c[nH]c4ccc(Br)cc34)c3c(c2c1)OCC3 [Example 448]	–
–	–	–	> 25	> 25	> 25	Cc1ccc2nc(-c3c(C)[nH]c4ccc(C)cc34)ccc2c1 [Example 439]	–
–	–	–	< 7	< 7	< 7	NCc1cccc(CNC(=O)c2cc(-c3c[nH]c4cc(F)ccc34)nc3cc(F)ccc23)c1 [Example 494]	–
–	–	–	> 25	< 7	< 25	Clc1ccc2nc(-c3c[nH]c4ccc(Br)cc34)c3c(c2c1)OCCC3 [Example 503]	–
–	–	–	< 7	< 7	< 7	Cn1cc(-c2cc(C(=O)NCCN)c3cc(C#CCNCC4CCCCC4)ccc3n2)c2cc(Br)ccc21 [Example 401]	–
–	–	–	> 25	< 25	< 25	Cc1ccc2[nH]c(C)c(-c3ccc4cccc(C)c4n3)c2c1 [Example 426]	–
–	–	–	< 7	< 7	< 7	NCCNC(=O)c1cc(-c2c[nH]c3ccc(Br)cc23)nc2ccc(C#CCN3CCSCC3)cc12 [Example 525]	–
–	–	–	> 25	> 25	> 25	COc1ccc2nc(-c3c[nH]c4cc(F)ccc34)ccc2c1 [Example 413]	–
–	–	–	> 25	> 25	< 25	Cc1ccc2nc(-c3c[nH]c4ccc(C)cc34)ccc2c1 [Example 440]	–
–	–	–	> 25	> 25	< 25	COc1ccc2[nH]cc(-c3ccc4ccc(C)cc4n3)c2c1 [Example 479]	–
> 25	> 25	> 25	–	–	–	CCB(OC)C(=O)c1cc(-c2c[nH]c3ccc(Br)cc23)nc2cc(Br)ccc12 [Example 375]	–
–	–	–	< 7	< 7	< 7	CNCCN(C)C(=O)c1cc(-c2c[nH]c3ccc(Br)cc23)nc2cc(Cl)ccc12 [Example 501]	–
–	–	–	< 7	< 7	< 7	Cn1cc(-c2cc(C(=O)NCCN)c3cc(C#CCN4CCc5ccccc5C4)ccc3n2)c2cc(Br)ccc21 [Example 404]	–
–	–	–	> 25	< 25	< 25	O=C(c1cc(-c2c[nH]c3cc(F)ccc23)nc2cc(F)ccc12)N1CCNCC1 [Example 498]	–
–	–	–	< 7	< 7	< 7	CNCCN(C)C(=O)c1cc(-c2cn(C)c3ccc(Br)cc23)nc2cc(Cl)ccc12 [Example 506]	–
–	–	–	< 25	< 7	< 7	OCc1cc(-c2c[nH]c3ccc(Br)cc23)nc2ccc(F)cc12 [Example 443]	–
–	–	–	> 25	> 25	< 25	Cc1ccc2nc(-c3c(C)[nH]c4ccccc34)ccc2c1 [Example 466]	–
–	–	–	< 7	< 7	< 7	NCCNC(=O)c1cc(-c2c[nH]c3ccc(Br)cc23)nc2ccc(C#CCO)cc12 [Example 523]	–

The next lines start with the compound.

SMILES	MIC [1, 3] [µg/mL]	MIC [2, 4] [µg/mL]	MIC (Streptococcus pneumoniae; [5]) [µg/mL]	MIC [1, 9] [µg/mL]	MIC [2, 10] [µg/mL]	MIC (Streptococcus pneumoniae; [11]) [µg/mL]	other results
NCc1cccc(CNC(=O)c2cc(-c3c[nH]c4ccc(Br)cc34)nc3ccc(C#CCN4CCCC4)cc23)c1 [Example 242]	< 25	< 7	< 7	–	–	–	–
Clc1ccc2nc(-c3c[nH]c4ccc(Br)cc34)ccc2c1 [Example 153]	–	–	–	–	–	–	MIC [1, 6]: > 25 µg/mL; MIC [2, 7]: < 7 µg/mL; MIC (Streptococcus pneumoniae; [8]): < 7 µg/mL
NCc1ccc(CNC(=O)c2cc(-c3c[nH]c4ccc(Br)cc34)nc3cc(C#CCN4CCSCC4)ccc23)cc1 [Example 270]	< 25	< 25	> 25	–	–	–	–
NCc1ccc(CNC(=O)c2cc(-c3c[nH]c4c(Br)cccc34)nc3ccccc23)cc1 [Example 261]	< 25	< 25	< 25	–	–	–	–
Fc1ccc2c(-c3ccc4cc(Cl)ccc4n3)c[nH]c2c1 [Example 288]	< 7	< 7	< 7	–	–	–	–
NCc1ccc(CNC(=O)c2cc(-c3c[nH]c4ccc(Br)cc34)nc3c(C#CCNCCc4ccc(Cl)cc4)cccc23)cc1 [Example 301]	< 25	< 7	< 25	–	–	–	–
NCc1ccc(CNC(=O)c2cc(-c3c[nH]c4ccc(Br)cc34)nc3ccc(C#CCN4CCNCC4)cc23)cc1 [Example 208]	< 25	< 7	< 25	–	–	–	–
NCc1ccc(CNC(=O)c2cc(-c3c[nH]c4ccc(Br)cc34)nc3cc(Cl)c(C#CCN4CCSCC4)cc23)cc1 [Example 272]	< 7	< 7	< 7	–	–	–	–
NCc1cccc(CNC(=O)c2cc(-c3c[nH]c4ccc(Br)cc34)nc3c(Cl)c(Cl)ccc23)c1 [Example 276]	< 7	< 7	> 25	–	–	–	–
Cn1cc(-c2cc(C(=O)NC3CCC(N)CC3)c3cc(Cl)ccc3n2)c2cc(Br)ccc21 (stereo not drawn) [Example 371]	< 7	< 7	< 7	–	–	–	–
O=[N+]([O-])c1ccc2[nH]cc(-c3ccc4cc(Cl)ccc4n3)c2c1 [Example 196]	–	–	–	–	–	–	MIC [1, 6]: > 25 µg/mL; MIC [2, 7]: < 7 µg/mL; MIC (Streptococcus pneumoniae; [8]): < 25 µg/mL
NCc1ccc(CNC(=O)c2cc(-c3c[nH]c4ccc(Br)cc34)nc3c(Br)cccc23)cc1 [Example 139]	–	–	–	–	–	–	MIC [1, 6]: < 7 µg/mL; MIC [2, 7]: < 7 µg/mL; MIC (Streptococcus pneumoniae; [8]): < 7 µg/mL
NCC1CCCC(CNC(=O)c2cc(-c3c[nH]c4ccc(Br)cc34)nc3cc(I)ccc23)C1 (stereo not drawn) [Example 250]	< 7	< 7	< 7	–	–	–	–
COc1ccc2[nH]cc(-c3cc(Cl)c4ccccc4n3)c2c1 [Example 348]	> 25	< 7	< 7	–	–	–	–
Cn1cc(-c2cc(C(=O)NCC3CCCC(CN)C3)c3ccc(I)cc3n2)c2cc(Br)ccc21 (stereo not drawn) [Example 332]	< 7	< 7	< 7	–	–	–	–
NCCNC(=O)c1cc(-c2c[nH]c3ccc(Cl)cc23)nc2c(Br)cccc12 [Example 322]	< 7	< 7	< 7	–	–	–	–
OCc1cc(-c2c[nH]c3ccc(Br)cc23)nc2cc(Cl)ccc12 [Example 492]	–	–	–	–	–	–	MIC VREF [1, 11]: <25 µg/mL; MIC MRSA [2, 11]: < 7 µg/mL; MIC S. pneu (Streptococcus pneumoniae; [11]): < 7 µg/mL
NCC1CCCC(CNC(=O)c2cc(-c3c[nH]c4ccc(Br)cc34)nc3cc(F)ccc23)C1 (stereo not drawn) [Example 298]	–	–	< 7	–	–	–	MIC VREF [1, 3]: <7 µg/mL; MIC MRSA [2, 4]: < 7 µg/mL
NCC1CCCC(CNC(=O)c2cc(-c3c[nH]c4ccc(Br)cc34)nc3ccc(I)cc23)C1 (stereo not drawn) [Example 115]	–	–	–	–	–	–	MIC [1, 6]: < 7 µg/mL; MIC [2, 7]: < 7 µg/mL; MIC (Streptococcus pneumoniae; [8]): < 7 µg/mL
NCCNC(=O)c1cc(-c2c[nH]c3ccc(Br)cc23)nc2c(Cl)cccc12 [Example 318]	< 7	< 7	< 7	–	–	–	–
NCc1ccc(CNC(=O)c2cc(-c3c[nH]c4ccc(Br)cc34)nc3c(F)cccc23)cc1 [Example 256]	< 7	< 7	< 7	–	–	–	–
CC(=O)Oc1cccc2[nH]cc(-c3ccc4cc(Cl)ccc4n3)c12 [Example 204]	< 25	< 7	< 7	–	–	–	–
Brc1ccc2[nH]cc(-c3ccc4cc(I)ccc4n3)c2c1 [Example 363]	< 7	< 7	< 7	–	–	–	–
NCc1cc(-c2c[nH]c3ccc(Cl)cc23)nc2ccccc12 [Example 372]	< 25	< 7	< 7	–	–	–	–
NC1CCCCC1NC(=O)c1cc(-c2c[nH]c3ccc(Br)cc23)nc2c(Cl)c(Cl)ccc12 (stereo not drawn) [Example 280]	< 7	< 7	< 7	–	–	–	–
NCc1ccc(CNC(=O)c2cc(-c3c[nH]c4ccc(Br)cc34)c3ccccc3n2)cc1 [Example 306]	< 7	< 7	< 7	–	–	–	–
Cn1cc(-c2cc(C(=O)NCC3CCC(CN)CC3)c3ccc(I)cc3n2)c2cc(Br)ccc21 (stereo not drawn) [Example 331]	< 7	< 7	< 7	–	–	–	–
C[Si](C)(C)CCOC(=O)n1cc(/C=N/c2ccc(I)cc2)c2cc(Br)ccc21 [Example 383]	–	–	–	–	–	–	MIC [1]: > 25 µg/mL; MIC ([2]; MRSA): > 25 µg/mL; MIC (Streptococcus pneumoniae): > 25 µg/mL

— patent US6376670B1, “Quinoline-indole antimicrobial agents, uses and compositions related thereto” (Sepracor Inc., priority 1997, dated 2002)
